According to patent publication US20220235034A1, “SELECTIVE HISTAMINE H3 RECEPTOR ANTAGONISTS FOR TREATING AUTISM SPECTRUM DISORDER” (RICHTER GEDEON NYRT., priority 2019, published 2022):
Entries after “also recorded” stand apart in the source; their conditions may differ.

What was measured:
[1] = test system: prenatally valproate-exposed rat pups; experiment: maternal deprivation-induced ultrasonic vocalization in prenatally valproate-exposed rat pups; assay type: in vivo; details: 0.01-1 mg/kg oral, co-administered with oral risperidone 0.003 mg/kg; prenatal valproate 300 mg/kg
Description: Maternal deprivation-induced ultrasonic vocalization in rat pups is a readout of socio-communicational function that is impaired in offspring after prenatal exposure to VPA (Gandal et al., Biol. Psychiatry 2010, 68, 1100-1106). To induce ultrasonic calls, prenatally VPA treated rat pups are placed individually into a cage where calls are being recorded with bat microphones. Calls are digitized with an audio filter and ultrasonic vocalization is recorded and quantified with SonoTrack software (Metris bv. The Netherlands). Baseline vocalization is measured on postnatal days 11-12 days for 10 min. Animals are divided into homogenous groups based on baseline vocalizations. On postnatal day 13, animals are treated p.o. with the appropriate doses of drug or vehicle 60 min before measurement and then returned to their nests until recording. Ultrasonic call counts are recorded for 10 min. Statistical analysis is performed on ultrasonic call counts with the non-parametric Kruskal-Wallis test and the post hoc Dunnett test.
The behavioral effect of the co-administration of 1-[4-(4-{3-[(2R)-2-methyl-pyrrolidin-1-yl]-propoxy)-phenoxy)-piperidin-1-yl]-ethan-1-one dicitrate and risperidone was studied in prenatally valproate-exposed (300 mg/kg) rat pups on ultrasound emissions induced by separation from their mothers. […]

[2] = test system: prenatally valproate-treated rats; experiment: social preference in the 3-chamber apparatus in prenatally valproate-treated rats; assay type: in vivo, rat; details: postnatal day 59
Description: (§1) In this method, time-mated female Wistar rats are administered a single dose of VPA (600 mg/kg, i.p.) on gestational day 12.5. Offspring are housed according to standard laboratory conditions until time of behavioral testing. Animals are housed in groups of 4 in conventional cages and maintained at 22-24° C. on a standard 12 hours light/dark cycle, with food and water available ad libitum. After investigational drug treatment, offspring are examined behaviorally in tests relevant for the assessment of autistic behavior. These tests include social play, social preference and social recognition memory. These tests are suitable to assess behavioral elements that represent core ASD symptoms in experimental animals. Efficaciousness of an investigational compound (ie. improvement of behavioral deficits induced by prenatal VPA exposure) may indicate usefulness in the pharmacotherapy of core symptoms of ASD. Doses of the investigational drug were corrected for the dicitrate salt with a correction factor of 2.07 and are expressed as free base. Reference is herein made to a parallel patent application filed by the applicant with the title of “Selective histamine H3 receptor antagonist acid addition salts and process for the preparation thereof” wherein the salts, including dicitrate salt is disclosed in detail.
The social preference and recognition memory assays in a 3-chamber apparatus are further indicators of intact social behavior in rats. The preference of a conspecific over an inanimate object as well as the ability to distinguish between familiar and novel conspecifics are necessary for normal social functioning and are defective in the prenatal VPA model in rats (Bambini-Junior et al., Brain Res. 2011, 1408:8-16). […] On postnatal day 59, prenatally VPA-treated rats are assessed for their social preference following 8 days of per os treatment with the test compound. On postnatal day 60, the same rats are assessed for their social recognition memory after 9 days of per os treatment with the test compound. […]

[3] = test system: prenatally valproate-treated rats; experiment: social play assay in prenatally valproate-treated rats; assay type: in vivo, rat; details: postnatal day 30
Description: as §1
Social play is a type of social interaction that is highly typical of adolescent mammals including rodents as well as humans (Vanderschuren and Trezza, Curr. Topics Behav. Neurosci. 2014, 16:189-212). Social play behavior is indicative of healthy social functioning in adult life and is defective after prenatal VPA treatment in the offspring (Schneider and Przewlocki Neuropsychopharmacology 2005, 30:80-89). At postnatal day 30, following 8 days treatment with the test compound, prenatally VPA-treated rats are evaluated for juvenile play behavior. The test is carried out in a test arena unknown to the rats with pairs of animals from the same treatment group over a 15 min trial. Animals are scored for duration of social play behavior. […]

[4] = test system: prenatally valproate-treated rats; experiment: social recognition memory in the 3-chamber apparatus in prenatally valproate-treated rats; assay type: in vivo, rat; details: postnatal day 60
Description: In this method, time-mated female Wistar rats are administered a single dose of VPA (600 mg/kg, i.p.) on gestational day 12.5. Offspring are housed according to standard laboratory conditions until time of behavioral testing. Animals are housed in groups of 4 in conventional cages and maintained at 22-24° C. on a standard 12 hours light/dark cycle, with food and water available ad libitum. After investigational drug treatment, offspring are examined behaviorally in tests relevant for the assessment of autistic behavior. These tests include social play, social preference and social recognition memory. These tests are suitable to assess behavioral elements that represent core ASD symptoms in experimental animals. […] Doses of the investigational drug were corrected for the dicitrate salt with a correction factor of 2.07 and are expressed as free base. […]
The social preference and recognition memory assays in a 3-chamber apparatus are further indicators of intact social behavior in rats. […] On postnatal day 59, prenatally VPA-treated rats are assessed for their social preference following 8 days of per os treatment with the test compound. On postnatal day 60, the same rats are assessed for their social recognition memory after 9 days of per os treatment with the test compound. […]

[5] = test system: prenatal valproate exposure model; details: dose of risperidone applied in the present study (0.003 mg/kg); cited from earlier work

Row | SMILES | reversal of the socio-communicational defect (ultrasound emissions induced by separation from mothers) [1] | effect on social preference versus VPA+VEH ([2]; 0.1 mg/kg per os once daily for 8 days) | effect on social preference versus VPA+VEH ([2]; 1 mg/kg per os once daily for 8 days, dicitrate) | reversal of the social preference deficit induced by prenatal valproate treatment ([2]; per os once daily for 8 days, doses 0.01, 0.1 and 1 mg/kg) | significance of effect on social play versus VPA+VEH ([3]; 0.1 mg/kg per os once daily for 8 days, dicitrate) | significance of effect on social play versus VPA+VEH ([3]; 1 mg/kg per os once daily for 8 days) | reversal of the social play deficit induced by prenatal valproate treatment (duration of social play behavior) ([3]; per os once daily for 8 days, doses 0.01, 0.1 and 1 mg/kg (as free base), dicitrate) | effect on social recognition memory versus VPA+VEH familiar ([4]; 1 mg/kg per os once daily for 9 days, dicitrate) | reversal of the social recognition deficit induced by prenatal valproate treatment ([4]; per os once daily for 9 days, doses 0.01, 0.1 and 1 mg/kg) | efficacy signal in the prenatal valproate exposure model [5]
1 | CC(=O)N1CCC(Oc2ccc(OCCCN3CCC[C@H]3C)cc2)CC1 [1-[4-(4-{3-[(2R)-2-methylpyrrolidin-1-yl]-propoxy}-phenoxy)-piperidin-1-yl]-ethan-1-on dicitrate] | dose-proportionally reversed the socio-communicational defect | statistically significant | statistically significant; also recorded: fully reversed social preference deficits | reversed the social preference deficit | statistically significant; also recorded: reaching significance | statistically significant | reversed the social play deficit; also recorded: partially reversed social play deficits | statistically significant; also recorded: fully reversed social recognition memory deficits | reversed the social recognition deficit | 
2 | Cc1nc2n(c(=O)c1CCN1CCC(c3noc4cc(F)ccc34)CC1)CCCC2 [risperidone] |  |  |  |  |  |  |  |  |  | produce an efficacy signal
